Bridge positions count the residues as written; N and C are the ends. Square brackets hold non-standard residues; d marks the D form. Peptide text beside a SMILES is read from it. * marks the point of attachment. Trp(1-CH2COOH) = N[C@@H](Cc1cn(CC(=O)O)c2ccccc12)C(=O)O; Phe(4-F) = N[C@@H](Cc1ccc(F)cc1)C(=O)O; Hyp = O=C(O)[C@@H]1C[C@@H](O)CN1; NMeNle = CCCC[C@H](NC)C(=O)O; Pen = CC(C)(S)[C@H](N)C(=O)O; Pip = O=C(O)[C@@H]1CCCCN1; Dab = NCC[C@H](N)C(=O)O; Dap = NC[C@H](N)C(=O)O; Boc = CC(C)(C)OC(=O)*; Piv = CC(C)(C)C(=O)*
What follows are compounds tested against T1, PD-1/PD-L1 (Homo sapiens, UniProt Q9NZQ7) (assay: PD-1/PD-L1 Homogenous Time-Resolved Fluorescence (HTRF) binding assay). Details: PD-L1-His 10 nM final, PD-1-Ig 20 nM final; inhibitors pre-incubated with PD-L1-His for 15 m.
T1 construct: TVMV protease site linker (C); made in house; host or cells: HEK293T cells
Outline: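 Compounds pre-incubated 15 min with human PD-L1(18-239)-His (10 nM final), then PD-1(25-167)-Ig (20 nM final) added for 15 min, in dPBS with 0.1% BSA and 0.05% Tween-20. Eu-cryptate anti-Ig (1 nM) and APC anti-His (20 nM) added, 30 min equilibration, 665/620 nm ratio read; IC50 reported.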

| SMILES | IC50 [nM] |
| --- | --- |
| CCCC[C@H]1C(=O)N(C)[C@@H](CCCC)C(=O)N[C@@H](CC(C)C)C(=O)N[C@H](C(N)=O)C(C)(C)SCC(=O)N[C@@H](Cc2ccc(F)cc2)C(=O)N2CCCC[C@H]2C(=O)N[C@@H](CC(=O)O)C(=O)N2CCC[C@H]2C(=O)N[C@@H](CNC(=O)C(C)(C)C)C(=O)N[C@@H](CC(C)C)C(=O)N2C[C@H](O)C[C@H]2C(=O)N[C@@H](Cc2c[nH]c3ccccc23)C(=O)N[C@@H](CCN)C(=O)N[C@@H](Cc2cn(CC(=O)O)c3ccccc23)C(=O)N1C [Example 20060] ({CH2CO}-[Phe(4-F)][Pip]DP[Dap](Piv)L[Hyp]W[Dab][Trp(1-CH2COOH)][NMeNle][NMeNle]L[Pen]-NH2; thioether N-14) | 10.4 |
| CCCC[C@H]1C(=O)N(C)[C@@H](CCCC)C(=O)N[C@@H](CCC(=O)O)C(=O)N[C@H](C(N)=O)CSCC(=O)N[C@@H](Cc2ccc(F)cc2)C(=O)N2CCCC[C@H]2C(=O)N[C@@H](CC(=O)O)C(=O)N2CCC[C@H]2C(=O)N[C@@H](CNC(=O)C(C)(C)C)C(=O)N[C@@H](CC(C)C)C(=O)N2C[C@H](O)C[C@H]2C(=O)N[C@@H](Cc2c[nH]c3ccccc23)C(=O)N[C@@H](CCNC(=O)C(C)(C)C)C(=O)N[C@@H](Cc2cn(CC(=O)O)c3ccccc23)C(=O)N1C [Example 20070] ({CH2CO}-[Phe(4-F)][Pip]DP[Dap](Piv)L[Hyp]W[Dab](Piv)[Trp(1-CH2COOH)][NMeNle][NMeNle]EC-NH2; thioether N-14) | 10.5 |
| CCCC[C@H]1C(=O)N(C)[C@@H](CCCC)C(=O)N[C@@H](C(C)C)C(=O)N[C@H](C(N)=O)CSCC(=O)N[C@@H](Cc2ccc(F)cc2)C(=O)N2CCCC[C@H]2C(=O)N[C@@H](CC(=O)O)C(=O)N2CCC[C@H]2C(=O)N[C@@H](CNC(=O)C(C)(C)C)C(=O)N[C@@H](CCCCN)C(=O)N2C[C@H](O)C[C@H]2C(=O)N[C@@H](Cc2c[nH]c3ccccc23)C(=O)N[C@@H](CCNC(=O)C(C)(C)C)C(=O)N[C@@H](Cc2cn(CC(=O)O)c3ccccc23)C(=O)N1C [Example 20080] ({CH2CO}-[Phe(4-F)][Pip]DP[Dap](Piv)K[Hyp]W[Dab](Piv)[Trp(1-CH2COOH)][NMeNle][NMeNle]VC-NH2; thioether N-14) | 10.7 |
| CCCC[C@H]1C(=O)N(C)[C@@H](CCCC)C(=O)N[C@@H](CC(C)C)C(=O)N[C@H](C(N)=O)CSCC(=O)N[C@@H](Cc2ccc(F)cc2)C(=O)N2CCCC[C@H]2C(=O)N[C@@H](CC(=O)O)C(=O)N2CCC[C@H]2C(=O)N[C@@H](CNC(=O)C(C)(C)C)C(=O)N[C@@H](CCCCN)C(=O)N2C[C@H](O)C[C@H]2C(=O)N[C@@H](Cc2c[nH]c3ccccc23)C(=O)N[C@@H](CCNC(=O)C(C)(C)C)C(=O)N[C@@H](Cc2cn(CC(=O)O)c3ccccc23)C(=O)N1C [Example 20090] ({CH2CO}-[Phe(4-F)][Pip]DP[Dap](Piv)K[Hyp]W[Dab](Piv)[Trp(1-CH2COOH)][NMeNle][NMeNle]LC-NH2; thioether N-14) | 11.1 |
| CCCC[C@H]1C(=O)N(C)[C@@H](CCCC)C(=O)N[C@@H](CCC(=O)O)C(=O)N[C@H](C(N)=O)CSCC(=O)N[C@@H](Cc2ccc(F)cc2)C(=O)N2CCCC[C@H]2C(=O)N[C@@H](CC(N)=O)C(=O)N2CCC[C@H]2C(=O)N[C@@H](CNC(=O)C(C)(C)C)C(=O)N[C@@H](CC(C)C)C(=O)N2CCC[C@H]2C(=O)N[C@@H](Cc2c[nH]c3ccccc23)C(=O)N[C@@H](CCN)C(=O)N[C@@H](Cc2cn(CC(=O)O)c3ccccc23)C(=O)N1C [Example 20110] ({CH2CO}-[Phe(4-F)][Pip]NP[Dap](Piv)LPW[Dab][Trp(1-CH2COOH)][NMeNle][NMeNle]EC-NH2; thioether N-14) | 11.7 |

Results, then the compound that gave them:

| IC50 [nM] | SMILES |
| --- | --- |
| 4.9 | CCCC[C@H]1C(=O)N(C)[C@@H](CCCC)C(=O)N[C@@H](CC(C)C)C(=O)N[C@H](C(N)=O)C(C)(C)SCC(=O)N[C@@H](Cc2ccc(F)cc2)C(=O)N2CCCC[C@H]2C(=O)N[C@@H](CC(N)=O)C(=O)N2CCC[C@H]2C(=O)N[C@@H](CNC(=O)C(C)(C)C)C(=O)N[C@@H](CC(C)C)C(=O)N2C[C@H](O)C[C@H]2C(=O)N[C@@H](Cc2c[nH]c3ccccc23)C(=O)N[C@@H](CCN)C(=O)N[C@@H](Cc2cn(CC(=O)O)c3ccccc23)C(=O)N1C [Example 20010] ({CH2CO}-[Phe(4-F)][Pip]NP[Dap](Piv)L[Hyp]W[Dab][Trp(1-CH2COOH)][NMeNle][NMeNle]L[Pen]-NH2; thioether N-14) |
| 6.9 | CCCC[C@H]1C(=O)N(C)[C@@H](CCCC)C(=O)N[C@@H](CC(C)C)C(=O)N[C@H](C(N)=O)CSCC(=O)N[C@@H](Cc2ccc(F)cc2)C(=O)N2CCCC[C@H]2C(=O)N[C@@H](CC(=O)O)C(=O)N2CCC[C@H]2C(=O)N[C@@H](CNC(=O)OC(C)(C)C)C(=O)N[C@@H](CC(C)C)C(=O)N2C[C@H](O)C[C@H]2C(=O)N[C@@H](Cc2c[nH]c3ccccc23)C(=O)N[C@@H](CCNC(=O)OC(C)(C)C)C(=O)N[C@@H](Cc2cn(CC(=O)O)c3ccccc23)C(=O)N1C [Example 20020] ({CH2CO}-[Phe(4-F)][Pip]DP[Dap](Boc)L[Hyp]W[Dab](Boc)[Trp(1-CH2COOH)][NMeNle][NMeNle]LC-NH2; thioether N-14) |
| 7.8 | CCCC[C@H]1C(=O)N(C)[C@@H](CCCC)C(=O)N[C@@H](CCC(=O)O)C(=O)N[C@H](C(N)=O)CSCC(=O)N[C@@H](Cc2ccc(F)cc2)C(=O)N2CCCC[C@H]2C(=O)N[C@@H](CC(N)=O)C(=O)N2CCC[C@H]2C(=O)N[C@@H](CNC(=O)C(C)(C)C)C(=O)N[C@@H](CC(C)C)C(=O)N2C[C@H](O)C[C@H]2C(=O)N[C@@H](Cc2c[nH]c3ccccc23)C(=O)N[C@@H](CCNC(=O)C(C)(C)C)C(=O)N[C@@H](Cc2cn(CC(=O)O)c3ccccc23)C(=O)N1C [Example 20030] ({CH2CO}-[Phe(4-F)][Pip]NP[Dap](Piv)L[Hyp]W[Dab](Piv)[Trp(1-CH2COOH)][NMeNle][NMeNle]EC-NH2; thioether N-14) |
| 8.3 | CCCC[C@H]1C(=O)N(C)[C@@H](CCCC)C(=O)N[C@@H](CC(C)C)C(=O)N[C@H](C(N)=O)CSCC(=O)N[C@@H](Cc2ccc(F)cc2)C(=O)N2CCCC[C@H]2C(=O)N[C@@H](CC(=O)O)C(=O)N2CCC[C@H]2C(=O)N[C@@H](CNC(=O)C(C)(C)C)C(=O)N[C@@H](CC(C)C)C(=O)N2CCC[C@H]2C(=O)N[C@@H](Cc2c[nH]c3ccccc23)C(=O)N[C@@H](CCNC(=O)C(C)(C)C)C(=O)N[C@@H](Cc2cn(CC(=O)O)c3ccccc23)C(=O)N1C [Example 20040] ({CH2CO}-[Phe(4-F)][Pip]DP[Dap](Piv)LPW[Dab](Piv)[Trp(1-CH2COOH)][NMeNle][NMeNle]LC-NH2; thioether N-14) |
| 10.4 | CCCC[C@H]1C(=O)N(C)[C@@H](CCCC)C(=O)N[C@@H](CC(C)C)C(=O)N[C@H](C(N)=O)CSCC(=O)N[C@@H](Cc2ccc(F)cc2)C(=O)N2CCCC[C@H]2C(=O)N[C@@H](CC(=O)O)C(=O)N2CCC[C@H]2C(=O)N[C@@H](CNC(=O)C(C)(C)C)C(=O)N[C@@H](CC(C)C)C(=O)N2C[C@H](O)C[C@H]2C(=O)N[C@@H](Cc2c[nH]c3ccccc23)C(=O)N[C@@H](CCN)C(=O)N[C@@H](Cc2cn(CC(=O)O)c3ccccc23)C(=O)N1C [Example 20050] ({CH2CO}-[Phe(4-F)][Pip]DP[Dap](Piv)L[Hyp]W[Dab][Trp(1-CH2COOH)][NMeNle][NMeNle]LC-NH2; thioether N-14) |

— patent US20220251141A1, “IMMUNOMODULATORS” (Bristol-Myers Squibb Company, priority 2019, published 2022)
